Among the test systems are CAKI-1 renal; HCC-2998 colon; HCT-116 colon; MCF7 breast; MDA-MB-435; NCI-H226 lung; OVCAR-4 ovarian; OVCAR-8 ovarian; PC-3 prostate; TK-10 renal.
Assay in all cases: growth of human tumour cells (NCI), 48 h

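A five-concentration, 48-hour dose response in 96-well plates underlies each endpoint, interpolated linearly between surrounding concentrations. GI50 marks 50% less growth. TGI: concentration producing complete growth inhibition.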

For `C[C@@H]1COCCN1c1cc(C2(O)C[C@H]3CC[C@@H](C2)O3)c2cnn(-c3ccn[nH]3)c2n1` (stereo not given in full), the GI50 with CAKI-1 renal is 0.0685 µM; with HCC-2998 colon, below 0.0113 µM; in the experiment on HCT-116 colon, 0.118 µM; with MCF7 breast, below 0.0106 µM; with MDA-MB-435, 0.0685 µM; with NCI-H226 lung, 0.0448 µM. Also, the GI50 in the experiment on OVCAR-4 ovarian was 0.0397 µM; in the experiment on OVCAR-8 ovarian it was 0.145 µM; in the experiment with PC-3 prostate it was 0.277 µM; with TK-10 renal, 0.0515 µM. The TGI in the experiment on CAKI-1 renal is 0.627 µM; in the experiment with HCC-2998 colon, 0.229 µM; in the experiment on HCT-116 colon it was above 100 µM; in the experiment with MCF7 breast, 1.38 µM; with MDA-MB-435 it was 0.692 µM; in the experiment with NCI-H226 lung, 0.528 µM. Further, the TGI with OVCAR-4 ovarian is 0.419 µM; with OVCAR-8 ovarian, 1.56 µM; in the experiment on PC-3 prostate, 24.4 µM; in the experiment on TK-10 renal, 1.01 µM.

In the case of `C[C@@H](Nc1nc(Nc2ccc(F)c(Cl)c2)nc2ccccc12)C1CC1`, the GI50 in the experiment on CAKI-1 renal is 3.18 µM; in the experiment with HCC-2998 colon it was 2.27 µM; in the experiment on HCT-116 colon, 1.49 µM; in the experiment on MCF7 breast, 2.84 µM; in the experiment on MDA-MB-435, 3.93 µM; in the experiment with NCI-H226 lung, 6.37 µM. Moreover, the GI50 is 1.73 µM in the experiment with OVCAR-4 ovarian, 3.58 µM in the experiment with OVCAR-8 ovarian, 2.19 µM with PC-3 prostate and 6.96 µM in the experiment with TK-10 renal. The TGI in the experiment with CAKI-1 renal is 15.7 µM; in the experiment on HCC-2998 colon, 6.46 µM; in the experiment with HCT-116 colon it was 3.2 µM; with MCF7 breast, 13.3 µM; with MDA-MB-435, 15 µM; in the experiment on NCI-H226 lung it was 35.9 µM. The TGI worked out at 12.9 µM in the experiment with OVCAR-4 ovarian, 20.5 µM in the experiment with OVCAR-8 ovarian, 8.04 µM in the experiment with PC-3 prostate and 20.3 µM with TK-10 renal.

Turning to `CC(=O)c1cc(O)c2ccccc2c1O`, the GI50 in the experiment on CAKI-1 renal was 15.5 µM; with HCC-2998 colon it was 19.9 µM; in the experiment with HCT-116 colon it was 17.6 µM; in the experiment on MCF7 breast, 14.8 µM; in the experiment on MDA-MB-435 it was 14.5 µM; with NCI-H226 lung, 17.5 µM. The GI50 in the experiment with OVCAR-4 ovarian was 14.2 µM; in the experiment with OVCAR-8 ovarian, 20.2 µM; with PC-3 prostate, 20.3 µM; in the experiment with TK-10 renal, 17 µM. Also, the TGI in the experiment with CAKI-1 renal is 30.2 µM; in the experiment on HCC-2998 colon, 37.1 µM; in the experiment with HCT-116 colon, 34.5 µM; with MCF7 breast, 36.9 µM; in the experiment on MDA-MB-435 it was 30.7 µM; in the experiment with NCI-H226 lung it was 33.2 µM. Besides, the TGI came to 41.6 µM with OVCAR-4 ovarian, 38.6 µM in the experiment on OVCAR-8 ovarian, 50.8 µM with PC-3 prostate and 33.1 µM with TK-10 renal.

Consider `CC(=C/c1ccccc1)/C=C1/NC(=S)N(/C=C2\C(=O)Oc3ccccc3C2=O)C1=O`, for which the GI50 in the experiment with CAKI-1 renal was 59.7 µM. Besides, the TGI in the experiment on CAKI-1 renal, with HCC-2998 colon, in the experiment on HCT-116 colon, in the experiment on MCF7 breast, with MDA-MB-435 and in the experiment with NCI-H226 lung was above 100 µM in each case. Also, the TGI in the experiment with OVCAR-4 ovarian, with OVCAR-8 ovarian, with PC-3 prostate and with TK-10 renal was above 100 µM in each case.

In the case of `Cc1cc(I)cc(CN(C)CCCN2CCN(C)CC2)c1O`, the GI50 in the experiment on CAKI-1 renal is 20.3 µM; with HCC-2998 colon, 24.7 µM; in the experiment on HCT-116 colon, 12.6 µM; with MCF7 breast, 26 µM; with MDA-MB-435, 14.4 µM; with NCI-H226 lung, 56.9 µM. Also, the GI50 was above 73.1 µM in the experiment on OVCAR-4 ovarian, 80.8 µM with OVCAR-8 ovarian, 52.2 µM in the experiment on PC-3 prostate and 61.7 µM in the experiment on TK-10 renal. The TGI in the experiment with CAKI-1 renal was 47.3 µM; with HCC-2998 colon, 56.8 µM; with HCT-116 colon, above 86.1 µM; in the experiment with MCF7 breast, 82.7 µM; in the experiment on MDA-MB-435 it was 31.4 µM; in the experiment with NCI-H226 lung it was above 100 µM. The TGI with OVCAR-4 ovarian, with OVCAR-8 ovarian, in the experiment on PC-3 prostate and in the experiment on TK-10 renal was above 100 µM each time.

As for `CCN(Cc1c(Cl)cccc1Cl)c1ccc(CO)c(Cl)c1`, the GI50 in the experiment on CAKI-1 renal is 4.23 µM; in the experiment on HCC-2998 colon, 12.3 µM; in the experiment with HCT-116 colon, below 0.0379 µM; in the experiment with MCF7 breast, 0.146 µM; in the experiment with MDA-MB-435, 9.22 µM; in the experiment on NCI-H226 lung it was 0.0224 µM. Moreover, the GI50 with OVCAR-4 ovarian was 0.194 µM; in the experiment with OVCAR-8 ovarian it was 13.7 µM; with PC-3 prostate it was 11.3 µM; in the experiment on TK-10 renal it was below 0.0238 µM. Besides, the TGI in the experiment on CAKI-1 renal was determined as 21.9 µM; with HCC-2998 colon it was 27.6 µM; with HCT-116 colon, 11.3 µM; with MCF7 breast, 13.4 µM; in the experiment with MDA-MB-435, 22.4 µM; with NCI-H226 lung, 0.071 µM. For the same molecule, the TGI stood at 8.24 µM with OVCAR-4 ovarian, 29.7 µM with OVCAR-8 ovarian, 23.9 µM in the experiment on PC-3 prostate and 0.0592 µM with TK-10 renal.

For the molecule `Cc1ccc(-c2cc(O)c(-c3ccc(C)cc3C)cc2O)c(C)c1`, the GI50 is 3.41 µM in the experiment on CAKI-1 renal; 9.37 µM in the experiment on HCC-2998 colon; 1.17 µM in the experiment with HCT-116 colon; 3.74 µM in the experiment with MCF7 breast; 6.98 µM in the experiment on MDA-MB-435; 3.11 µM with NCI-H226 lung. For the same molecule, the GI50 in the experiment on OVCAR-4 ovarian is 4.27 µM; with OVCAR-8 ovarian, 4.04 µM; in the experiment on PC-3 prostate it was 3.95 µM; in the experiment on TK-10 renal, 11.7 µM. The TGI turned out to be 34.3 µM in the experiment with CAKI-1 renal; 21.9 µM with HCC-2998 colon; 13.7 µM in the experiment on HCT-116 colon; 23.1 µM with MCF7 breast; 45.1 µM in the experiment with MDA-MB-435; 19.2 µM with NCI-H226 lung. Also, the TGI in the experiment on OVCAR-4 ovarian is 18.5 µM; in the experiment on OVCAR-8 ovarian, 22.2 µM; in the experiment with PC-3 prostate it was 57.1 µM; in the experiment on TK-10 renal, 42.2 µM.

For the molecule `COc1cc(NC(=O)C2=C(N3CCOCC3)/C(=C/c3ccc(Cl)cc3)CC2)cc(OC)c1OC`, the GI50 in the experiment with CAKI-1 renal is 23 µM; with HCC-2998 colon it was 38.9 µM; in the experiment with HCT-116 colon, 28.5 µM; with MCF7 breast it was above 100 µM; with MDA-MB-435, above 100 µM; in the experiment with NCI-H226 lung, 34.3 µM. Also, the GI50 was 4.27 µM with OVCAR-4 ovarian, 19.5 µM in the experiment with OVCAR-8 ovarian, 6.06 µM with PC-3 prostate and 27.9 µM in the experiment on TK-10 renal. Also, the TGI in the experiment on CAKI-1 renal, in the experiment on HCC-2998 colon, in the experiment on HCT-116 colon, in the experiment with MCF7 breast, with MDA-MB-435 and in the experiment with NCI-H226 lung was above 100 µM in each case. For the same molecule, the TGI with OVCAR-4 ovarian was above 100 µM; with OVCAR-8 ovarian it was above 100 µM; in the experiment on PC-3 prostate it was above 100 µM; in the experiment on TK-10 renal, 86.5 µM.

With `O=C1OCC2=C1C(c1ccccc1)c1cc3c(cc1N2CCO)OCCO3` (stereo not given), the GI50 with CAKI-1 renal was 0.293 µM; in the experiment on HCC-2998 colon, 0.182 µM; in the experiment with HCT-116 colon it was 0.226 µM; with MCF7 breast, 0.175 µM; in the experiment with MDA-MB-435, 0.113 µM; in the experiment on NCI-H226 lung it was 10.8 µM. For the same molecule, the GI50 with OVCAR-4 ovarian is 0.587 µM; in the experiment with OVCAR-8 ovarian, 0.651 µM; in the experiment with PC-3 prostate, 0.182 µM; in the experiment on TK-10 renal, 1.27 µM. Besides, the TGI with CAKI-1 renal was above 30.3 µM; in the experiment with HCC-2998 colon, 0.722 µM; in the experiment on HCT-116 colon it was above 18.7 µM; in the experiment on MCF7 breast it was 48.6 µM; in the experiment with MDA-MB-435, 0.32 µM; in the experiment on NCI-H226 lung it was above 50 µM. In addition, the TGI in the experiment on OVCAR-4 ovarian, in the experiment on OVCAR-8 ovarian and in the experiment with PC-3 prostate was above 50 µM each time.

Consider `Cc1ccc(Sc2cc3c(oc2=O)-c2ccccc2OC3O)cc1` (stereo not given), for which the GI50 in the experiment on CAKI-1 renal was 32 µM; in the experiment with HCC-2998 colon, 20.3 µM; with HCT-116 colon, 25.6 µM; in the experiment on MCF7 breast it was 35.9 µM; in the experiment with MDA-MB-435, 27.2 µM; in the experiment with NCI-H226 lung it was 30 µM. The GI50 is 33.1 µM in the experiment on OVCAR-4 ovarian, 27.8 µM in the experiment on OVCAR-8 ovarian, 28 µM in the experiment on PC-3 prostate and 33.8 µM with TK-10 renal. Also, the TGI is 78.1 µM with CAKI-1 renal; 36.6 µM in the experiment on HCC-2998 colon; 59.4 µM with HCT-116 colon; above 100 µM with MCF7 breast; 54.6 µM in the experiment with MDA-MB-435; 75 µM with NCI-H226 lung. Moreover, the TGI in the experiment on OVCAR-4 ovarian was above 100 µM; in the experiment on OVCAR-8 ovarian, 71.3 µM; with PC-3 prostate, 76.5 µM; with TK-10 renal, 84.9 µM.

Consider `O=C(/C=C\c1ccccc1)N1CCc2ccccc2C1`, for which the TGI with CAKI-1 renal was above 100 µM; with HCC-2998 colon, above 100 µM; with HCT-116 colon, above 100 µM; with MCF7 breast, above 100 µM; with MDA-MB-435 it was 84.1 µM; with NCI-H226 lung, above 100 µM. In addition, the TGI in the experiment on OVCAR-4 ovarian, with OVCAR-8 ovarian, in the experiment with PC-3 prostate and with TK-10 renal was above 100 µM throughout.

For the molecule `CCN(CC)C(=S)[S][Bi]([S]C(=S)N(CC)CC)[S]C(=S)N(CC)CC`, the GI50 with CAKI-1 renal is 0.199 µM; in the experiment with HCC-2998 colon, 1.6 µM; in the experiment with HCT-116 colon, 0.0858 µM; with MCF7 breast, 0.119 µM; with MDA-MB-435, 0.984 µM; in the experiment on NCI-H226 lung it was 2.07 µM. Further, the GI50 was 0.165 µM in the experiment on OVCAR-4 ovarian, 0.284 µM in the experiment with OVCAR-8 ovarian, 0.263 µM with PC-3 prostate and 0.197 µM with TK-10 renal. For the same molecule, the TGI in the experiment on CAKI-1 renal is 0.776 µM; in the experiment with HCC-2998 colon it was 3.02 µM; with HCT-116 colon, 0.247 µM; in the experiment with MCF7 breast it was 0.349 µM; with MDA-MB-435, 2.2 µM; in the experiment with NCI-H226 lung, 4.18 µM. The TGI came out at 0.31 µM in the experiment with OVCAR-4 ovarian, 0.755 µM in the experiment on OVCAR-8 ovarian, 1.04 µM in the experiment with PC-3 prostate and 0.374 µM in the experiment with TK-10 renal.
